Results as given in patent publication US12492337B2, “Fluorescent probe, preparation method therefor and use thereof” (FLUORESCENCE DIAGNOSIS (SHANGHAI) BIOTECH COMPANY, priority 2017, dated 2025).

Columns and labels:
[1] = Viscosity responsiveness: fluorescence intensity in glycerol versus methanol; assay type: physicochemical; settings: fluorescence intensity in glycerol to that in methanol
Protocol: The above-mentioned viscosity-responsive fluorescent dye means that the fluorescence intensity of the dye responds to the viscosity of the solution. As the viscosity of the solution increases, the fluorescence intensity increases. Optionally, the viscosity-responsive fluorescent dye is an organic dye molecule which, under the same concentration and excitation wavelength, at 25° C. has a ratio • of the maximum fluorescence emission intensity of the dye in glycerol to the fluorescence intensity in methanol of greater than 2, optionally greater than 5, optionally greater than 10. The concentration of the viscosity-responsive dye ranges from 1×10^−7 M to 1×10^−5 M.

HaloTag protein tag = assay: Probe mixed with HaloTag protein tag, fluorescence spectrophotometer (Example 86); assay type: biochemical; settings: 5 μM probe, 10 μM protein tag, 37° C., 1 hour; for Fluorescence enhancement: fluorescence activation multiple after binding protein tag; for Emission/nm: fluorescence emission wavelength
Protocol: (§1) A probe was mixed with a corresponding HaloTag protein tag to obtain a mixed sample. The final concentration of the probe in the mixed sample was 5 μM and the final concentration of the protein tag was 10 μM. The mixed sample was incubated at 37° C. for 1 hour, and the sample was detected using a fluorescence spectrophotometer.

[2] = Quantum yield of free probe not reacted with protein tag; assay type: physicochemical
Protocol: as §1

| SMILES | ratio [1] | The quantum yield after binding to Halo-tag (HaloTag protein tag) | Fluorescence enhancement (HaloTag protein tag) | Emission/nm (HaloTag protein tag) [nm] | The quantum yield of the free probe [2] |
| --- | --- | --- | --- | --- | --- |
| CN(CCOC(=O)NCCOCCOCCCCCCCl)c1cc2c(s1)-c1sc(/C=C(\C#N)c3nc4ccccc4s3)cc1[Si]2(C)C [Probe 39] | 892 | 0.38 | 335 | 700 | 0.0016 |
| CN(CCOC(=O)NCCOCCOCCCCCCCl)c1ccc(-c2ccc(/C=C(\C#N)C(=O)OC(C)(C)C)s2)s1 [Probe 40] | 759 | 0.47 | 421 | 657 | 0.001 |
| COCCNC(=O)/C(C#N)=C/c1ccc(-c2ccc(N(C)CCOC(=O)NCCOCCOCCCCCCCl)s2)s1 [Probe 41] | 101 | 0.44 | 418 | 700 | 0.0015 |
| CN(CCOC(=O)NCCOCCOCCCCCCCl)c1ccc(-c2ccc(/C=C(\C#N)c3nc4ccccc4o3)s2)s1 [Probe 42] | 178 | 0.39 | 375 | 702 | 0.0013 |
| CC(C)(C)OC(=O)/C(C#N)=C/c1ccc2c(c1)SCCN2CCOC(=O)NCCOCCOCCCCCCCl [Probe 44] | 1459 | 0.63 | 1586 | 521 | <0.001 |
| N#C/C(=C\c1ccc2c(c1)SCCN2CCOC(=O)NCCOCCOCCCCCCCl)c1nc2ccccc2o1 [Probe 45] | 752 | 0.54 | 958 | 545 | <0.001 |
| CC1=CC(C)(C)N(CCOC(=O)NCCOCCOCCCCCCCl)c2ccc(/C=C(\C#N)C(=O)OC(C)(C)C)cc21 [Probe 46] | 682 | 0.58 | 563 | 520 | <0.001 |
| CC1=CC(C)(C)N(CCOC(=O)NCCOCCOCCCCCCCl)c2ccc(/C=C(\C#N)C(=O)O)cc21 [Probe 47] | 235 | 0.45 | 358 | 523 | <0.001 |
| CN(CCOC(=O)NCCOCCOCCCCCCCl)c1cc2c(s1)-c1sc(/C=C(\C#N)C(=O)OC(C)(C)C)cc1C2(C)C [Probe 48] | 480 | 0.57 | 428 | 645 | <0.001 |
| CN(CCOC(=O)NCCOCCOCCCCCCCl)c1cc2c(s1)-c1sc(/C=C(\C#N)c3nc4ccccc4o3)cc1C2(C)C [Probe 49] | 334 | 0.54 | 541 | 680 | <0.001 |
| CN(CCOC(=O)NCCOCCOCCCCCCCl)c1cc2c(s1)-c1sc(/C=C(\C#N)C(=O)O)cc1C2(C)C [Probe 50] | 358 | 0.53 | 416 | 637 | <0.001 |
| CN(CCOC(=O)NCCOCCOCCCCCCCl)c1ccc2c(c1)C(C)(C)c1cc(/C=C(/C#N)C(=O)OC(C)(C)C)ccc1-2 [Probe 51] | 359 | 0.48 | 392 | 625 | <0.001 |
| COCCNC(=S)/C(C#N)=C/c1cc2c(s1)-c1sc(N(C)CCOC(=O)NCCOCCOCCCCCCCl)cc1C2(C)C [Probe 52] | 270 | 0.47 | 435 | 670 | <0.001 |
| COCCNC(=S)/C(C#N)=C/c1cc2c(s1)-c1sc(N(C)CCOC(=O)NCCOCCOCCCCCCCl)cc1[Si]2(C)C [Probe 54] | 391 | 0.41 | 498 | 710 | <0.001 |
| CN1C(=O)/C(=C\c2cc3c(s2)-c2sc(N(C)CCOC(=O)NCCOCCOCCCCCCCl)cc2C3(C)C)SC1=S [Probe 55] | 211 | 0.39 | 382 | 660 | <0.001 |
| CN1C(=O)/C(=C\c2cc3c(s2)-c2sc(N(C)CCOC(=O)NCCOCCOCCCCCCCl)cc2[Si]3(C)C)SC1=S [Probe 56] | 436 | 0.47 | 989 | 725 | <0.001 |
| CN(CCO)c1ccc(/C=C(\C#N)C(=O)NCCOCCOCCCCCCCl)cc1 [Probe 58] | 419 | 0.58 | 519 | 480 | <0.001 |
| CN(C)c1ccc2cc(/C=C(\C#N)C(=O)OCCOCCOCCCCCCCl)sc2c1 [Probe 64] | 632 | 0.60 | 519 | 585 | <0.001 |
| CN(CCO)c1ccc2cc(/C=C(\C#N)C(=O)NCCOCCOCCCCCCCl)sc2c1 [Probe 65] | 391 | 0.66 | 798 | 570 | <0.001 |
| CNc1ccc2cc(/C=C(\C#N)C(=O)NCCOCCOCCCCCCCl)sc2c1 [Probe 66] | 386 | 0.53 | 512 | 550 | <0.001 |
| CN(C)c1ccc2cc(/C=C(\C#N)C(=O)NCCCCCCCl)sc2c1 [Probe 67] | 276 | 0.48 | 576 | 580 | <0.001 |
| CN(C)c1ccc2cc(/C=C(\C#N)C(=O)NCCOCCCl)sc2c1 [Probe 68] | 381 | 0.50 | 681 | 580 | <0.001 |
| CN(C)c1ccc2nc(/C=C(\C#N)C(=O)NCCOCCOCCCCCCCl)sc2c1 [Probe 71] | 321 | 0.61 | 475 | 620 | 0.0028 |
| CN(C)c1ccc2nc(/C=C(\C#N)C(=O)OCCOCCOCCCCCCCl)sc2c1 [Probe 72] | 268 | 0.47 | 486 | 640 | 0.001 |
| CN(C)c1cc2c(s1)-c1sc(/C=C3\SC(=O)N(CCOCCOCCCCCCCl)C3=O)cc1C2(C)C [Probe 78] | 452 | 0.41 | 369 | 660 | <0.001 |
| CN(C)c1cc2c(s1)-c1sc(/C=C3\SC(=S)N(CCOCCOCCCCCCCl)C3=O)cc1C2(C)C [Probe 79] | 498 | 0.51 | 419 | 725 | <0.001 |
| CN(C)c1ccc(-c2ccc(/C=C3\SC(=O)N(CCOCCOCCCCCCCl)C3=O)s2)s1 [Probe 81] | 521 | 0.40 | 563 | 743 | <0.001 |
| CN(C)c1cc2c(s1)-c1sc(/C=C(\C#N)C(=S)NCCOCCOCCCCCCCl)cc1[Si]2(C)C [Probe 83] | 652 | 0.53 | 456 | 680 | <0.001 |
| CN(C)c1ccc(-c2ccc(/C=C(\C#N)C(=S)NCCOCCOCCCCCCCl)s2)s1 [Probe 84] | 522 | 0.47 | 431 | 680 | <0.001 |
| CN(C)c1ccc2c(c1)C(C)(C)c1cc(/C=C(\C#N)C(=O)NCCOCCOCCCCCCCl)sc1-2 [Probe 86] | 470 | 0.52 | 618 | 550 | 0.0012 |
